# Assay results published in the supplement of paper PMC11061612.
# How the values were obtained:
# [1] = system: LN-18 (Glioblastoma); assay: combination Emax (second highest fraction inhibited in the dose matrix, 72 h); higher = more inhibition; extreme values may be limits of the assay
# Outline: (§1)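 Bliss excess equals the observed combination effect minus the expected value EA + EB − EA·EB, where EA and EB are the effects of each agent alone. Combination Emax is the second-highest inhibition within the matrix. Inhibition was scaled from CellTiter-Glo 2.0 luminescence, with 0 set by vehicle wells and 1 by blank wells, after 72 hours of two-drug dosing of cells plated in 1536-well plates.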
# [2] = system: KARPAS-45 (T-Lymphoblastic Leukemia); assay: as above
# Outline: as §1
# [3] = system: MS751 (Cervical Carcinoma); assay: as above
# Outline: as §1
# [4] = system: MOLT-16 (T-Lymphoblastic Leukemia); assay: as above
# Outline: as §1
# [5] = system: TOV-112D (Ovarian Carcinoma); assay: as above
# Outline: as §1
# [6] = system: TE-6 (Esophageal Squamous Cell Carcinoma); assay: as above
# Outline: as §1
# [7] = system: MEL-JUSO (Melanoma); assay: as above
# Outline: as §1
# [8] = system: COLO-678 (Colorectal Carcinoma); assay: as above
# Outline: as §1
# [9] = system: EVSA-T (Breast Carcinoma); assay: as above
# Outline: as §1
# [10] = system: U251 (Low Grade Glioma); assay: as above
# Outline: as §1
# [11] = system: MFM-223 (Breast Carcinoma); assay: as above
# Outline: as §1
# [12] = system: HL-60 (Acute Myeloid Leukemia); assay: as above
# Outline: as §1
# [13] = system: TC-71 (Ewing's Sarcoma); assay: as above
# Outline: as §1
# [14] = system: KM12 (Colorectal Carcinoma); assay: as above
# Outline: as §1
# [15] = system: PANC-08-13 (Pancreatic Carcinoma); assay: as above
# Outline: as §1
# [16] = system: SU-DHL-8 (B-Cell Non-Hodgkin's Lymphoma); assay: as above
# Outline: as §1
# [17] = system: DiFi (Colorectal Carcinoma); assay: as above
# Outline: as §1
# [18] = system: HDQ-P1 (Breast Carcinoma); assay: as above
# Outline: as §1
# [19] = system: CHP-212 (Neuroblastoma); assay: as above
# Outline: as §1
# [20] = system: KCL-22 (Chronic Myelogenous Leukemia); assay: as above
# Outline: as §1
# [21] = system: P12-ICHIKAWA (T-Lymphoblastic Leukemia); assay: as above
# Outline: as §1
# [22] = system: KYSE-180 (Esophageal Squamous Cell Carcinoma); assay: as above
# Outline: as §1
# [23] = system: LN-18 (Glioblastoma); assay: Bliss excess, mean over the matrix (fraction); higher = more synergy
# Outline: as §1
# [24] = system: KARPAS-45 (T-Lymphoblastic Leukemia); assay: as above
# Outline: as §1
# [25] = system: MS751 (Cervical Carcinoma); assay: as above
# Outline: as §1
# [26] = system: MOLT-16 (T-Lymphoblastic Leukemia); assay: as above
# Outline: as §1
# [27] = system: TOV-112D (Ovarian Carcinoma); assay: as above
# Outline: as §1
# [28] = system: TE-6 (Esophageal Squamous Cell Carcinoma); assay: as above
# Outline: as §1
# [29] = system: MEL-JUSO (Melanoma); assay: as above
# Outline: as §1
# [30] = system: COLO-678 (Colorectal Carcinoma); assay: as above
# Outline: as §1
# [31] = system: EVSA-T (Breast Carcinoma); assay: as above
# Outline: as §1
# [32] = system: U251 (Low Grade Glioma); assay: as above
# Outline: as §1
# [33] = system: MFM-223 (Breast Carcinoma); assay: as above
# Outline: as §1
# [34] = system: HL-60 (Acute Myeloid Leukemia); assay: as above
# Outline: as §1
# [35] = system: TC-71 (Ewing's Sarcoma); assay: as above
# Outline: as §1
# [36] = system: KM12 (Colorectal Carcinoma); assay: as above
# Outline: as §1
# [37] = system: PANC-08-13 (Pancreatic Carcinoma); assay: as above
# Outline: as §1
# [38] = system: SU-DHL-8 (B-Cell Non-Hodgkin's Lymphoma); assay: as above
# Outline: as §1
# [39] = system: DiFi (Colorectal Carcinoma); assay: as above
# Outline: as §1
# [40] = system: HDQ-P1 (Breast Carcinoma); assay: as above
# Outline: as §1
# [41] = system: CHP-212 (Neuroblastoma); assay: as above
# Outline: as §1
# [42] = system: KCL-22 (Chronic Myelogenous Leukemia); assay: as above
# Outline: as §1
# [43] = system: P12-ICHIKAWA (T-Lymphoblastic Leukemia); assay: as above
# Outline: as §1
# [44] = system: KYSE-180 (Esophageal Squamous Cell Carcinoma); assay: as above
# Outline: as §1
smiles,measurement,setting,value
"COc1nnc2ccc(N3CCC(c4ccc(OCCN5CCN(C)C(=O)[C@H]5C)cc4)CC3)nn12 [AZD5153] + CN(CC[C@H](CSC1=CC=CC=C1)NC2=C(C=C(C=C2)S(=O)(=O)NC(=O)C3=CC=C(C=C3)N4CCC(CC4)[C@H](C5=CC=CC=C5C6=CC=C(C=C6)Cl)O)S(=O)(=O)C(F)(F)F)CCO [AZD4320] (first compound max 1 µM, 7x7, partner max 1 µM)",combination Emax,[1],0.605
same,combination Emax,[2],1
same,combination Emax,[3],0.726
same,combination Emax,[4],1
same,combination Emax,[5],0.664
same,combination Emax,[6],0.81
same,combination Emax,[7],0.3
same,combination Emax,[8],0.459
same,combination Emax,[9],0.938
same,combination Emax,[10],0.505
same,combination Emax,[11],0.544
same,combination Emax,[12],0.994
same,combination Emax,[13],0.814
same,combination Emax,[14],0.648
same,combination Emax,[15],0.876
same,combination Emax,[16],1
same,combination Emax,[17],0.818
same,combination Emax,[18],0.967
same,combination Emax,[19],0.896
same,combination Emax,[20],0.963
same,combination Emax,[21],1
same,combination Emax,[22],0.326
same,Bliss excess,[23],-0.0251
same,Bliss excess,[24],0.0274
same,Bliss excess,[25],0.0372
same,Bliss excess,[26],0.0258
same,Bliss excess,[27],0.0022
same,Bliss excess,[28],-0.0157
same,Bliss excess,[29],0.0122
same,Bliss excess,[30],0.0322
same,Bliss excess,[31],0.0426
same,Bliss excess,[32],0.0547
same,Bliss excess,[33],-0.0065
same,Bliss excess,[34],-0.0203
same,Bliss excess,[35],-0.081
same,Bliss excess,[36],0.0033
same,Bliss excess,[37],0.0589
same,Bliss excess,[38],-0.128
same,Bliss excess,[39],0.0671
same,Bliss excess,[40],0.0844
same,Bliss excess,[41],-0.0243
same,Bliss excess,[42],0.078
same,Bliss excess,[43],0.0283
same,Bliss excess,[44],0.0551
